The subject of this test is methane production in rumen fluid. The test can be described thus: Rumen in vitro (RIV) assay, methane production from rumen fluid incubations. Type of test: cell-based, cattle. The conditions noted are these: Bos taurus, read-out: RIV % methane reduction +/− SD. In outline: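 Rumen fluid from two fistulated cattle diluted 12 ml in 48 ml buffer with ryegrass substrate, incubated in sealed bottles at 39° C for 24-48 h in duplicate. Inhibitors added in DMF (stocks 1000-fold above highest assay level); total gas, methane and H2 measured automatically; 30 μM BES positive control, no-inhibitor negative control.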

Molecules are shown by their SMILES.

With `O=C(CCC(=O)N1N=C(c2ccc(-c3ccccc3)cc2)CC1c1ccc2nccnc2c1)NS(=O)(=O)c1ccccc1` (stereo not drawn) [Compound 123, 4-(3-([1,1′-Biphenyl]-4-yl)-5-(quinoxalin-6-yl)-4,5-dihydro-1H-pyrazol-1-yl)-4-oxo-N-(phenylsulfonyl) butanamide], the inhibition at 2 µM was determined as 7.4 ± 0.7% and the inhibition at 10 µM was determined as 77 ± 4.2%.

Consider `Cc1ccccc1S(=O)(=O)NC(=O)CCC(=O)N1N=C(c2ccc(Cl)cc2)CC1c1ccc2nccnc2c1` (stereo not drawn) [Compound 124, 4-(3-(4-Chlorophenyl)-5-(quinoxalin-6-yl)-4,5-dihydro-1H-pyrazol-1-yl)-4-oxo-N-(o-tolylsulfonyl) butanamide], for which the inhibition at 10 µM was found to be 12.7 ± 0.8%.

As to `Cc1ccc(S(=O)(=O)NC(=O)CCC(=O)N2N=C(c3ccc(Cl)cc3)CC2c2ccc3nccnc3c2)cc1` (stereo not drawn) [Compound 125, 4-(3-(4-Chlorophenyl)-5-(quinoxalin-6-yl)-4,5-dihydro-1H-pyrazol-1-yl)-4-oxo-N-tosylbutanamide], the inhibition at 10 µM was determined as 21.8 ± 5.7%.

Regarding `CN(C)S(=O)(=O)NC(=O)CCC(=O)N1N=C(c2ccc(OC(F)(F)F)cc2)CC1c1ccc2nccnc2c1` (stereo not drawn) [Compound 126, N—(N,N-Dimethylsulfamoyl)-4-oxo-4-(5-(quinoxalin-6-yl)-3-(4-(trifluoromethoxy)phenyl)-4,5-dihydro-1H-pyrazol-1-yl) butanamide], the inhibition at 10 µM worked out at 25.5 ± 3.8%.

As for `CN(C)S(=O)(=O)NC(=O)CCC(=O)N1N=C(c2cccc(-c3ccccc3)c2)CC1c1ccc2nccnc2c1` (stereo not drawn) [Compound 127, 4-(3-([1,1′-Biphenyl]-3-yl)-5-(quinoxalin-6-yl)-4,5-dihydro-1H-pyrazol-1-yl)-N—(N,N-dimethylsulfamoyl)-4-oxobutanamide], the inhibition at 2 µM stood at 16.8 ± 0.7% and the inhibition at 10 µM stood at 84.1 ± 3%.

On to `O=C(CCC(=O)N1N=C(c2ccc(Cl)cc2)CC1c1ccc2nccnc2c1)NS(=O)(=O)N1CCCC1` (stereo not drawn) [Compound 128, 4-(3-(4-Chlorophenyl)-5-(quinoxalin-6-yl)-4,5-dihydro-1H-pyrazol-1-yl)-4-oxo-N-(pyrrolidin-1-ylsulfonyl) butanamide], for which the inhibition at 10 µM came out at 53 ± 5.7%.

As to `O=C(O)CCC(=O)N1N=C2c3cccc(-c4ccccc4)c3CCC2C1c1ccc2nccnc2c1` (stereo not drawn) [Compound 129, 4-Oxo-4-(6-phenyl-3-(quinoxalin-6-yl)-3,3a,4,5-tetrahydro-2H-benzo[g]indazol-2-yl)butanoic acid], the inhibition at 10 µM came to 42.5 ± 15.8%.

The values are drawn from patent US20260053171A1, “METHANOGEN INHIBITORS” (AGRIZERONZ LIMITED PARTNERSHIP, priority 2022, published 2026).
